What was measured:
[1] = target: Calcium/calmodulin-dependent protein kinase kinase 2 (Homo sapiens) (UniProt Q96RR4); assay: CAMKK2 (CaMKK beta) Kinase screen; settings: Compound concentration 1.0 uM
[2] = tested on: Epidermal growth factor receptor (Homo sapiens), P00533 [T790M]; assay: EGFR (ErbB1) T790M Kinase screen; settings: Compound concentration 1.0 uM
[3] = target: Fibroblast growth factor receptor 3 (Homo sapiens) (UniProt P22607); assay: FGFR3 Kinase screen; settings: Compound concentration 1.0 uM
Chain of Fibroblast growth factor receptor 3 (Homo sapiens) (P22607 23-806 limits assumed): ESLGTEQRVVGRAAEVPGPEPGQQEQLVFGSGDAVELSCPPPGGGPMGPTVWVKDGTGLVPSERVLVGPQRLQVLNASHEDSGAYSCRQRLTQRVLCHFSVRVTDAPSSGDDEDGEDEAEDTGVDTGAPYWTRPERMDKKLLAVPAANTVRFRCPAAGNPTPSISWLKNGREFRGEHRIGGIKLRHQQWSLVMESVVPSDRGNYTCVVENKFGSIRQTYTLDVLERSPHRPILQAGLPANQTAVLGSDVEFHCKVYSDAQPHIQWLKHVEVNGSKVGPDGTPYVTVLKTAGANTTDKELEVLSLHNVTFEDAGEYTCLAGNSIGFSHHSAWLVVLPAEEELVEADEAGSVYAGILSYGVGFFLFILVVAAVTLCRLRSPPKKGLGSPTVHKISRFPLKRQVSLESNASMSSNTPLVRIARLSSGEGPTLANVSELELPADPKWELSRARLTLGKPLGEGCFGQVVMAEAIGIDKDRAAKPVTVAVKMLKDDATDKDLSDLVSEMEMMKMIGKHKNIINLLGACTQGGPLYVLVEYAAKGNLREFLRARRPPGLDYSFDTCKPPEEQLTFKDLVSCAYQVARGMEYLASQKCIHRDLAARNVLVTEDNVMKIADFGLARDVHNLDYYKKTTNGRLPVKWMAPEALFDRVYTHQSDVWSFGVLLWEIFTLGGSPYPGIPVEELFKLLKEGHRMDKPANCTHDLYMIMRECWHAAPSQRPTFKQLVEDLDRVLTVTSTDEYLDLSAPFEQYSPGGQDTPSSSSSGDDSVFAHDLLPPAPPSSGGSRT

[4] = tested on: Mast/stem cell growth factor receptor Kit (Homo sapiens), P10721 [T670I]; assay: KIT T670I Kinase screen; settings: Compound concentration 1.0 uM
Chain of Mast/stem cell growth factor receptor Kit (Homo sapiens), P10721 [T670I] (P10721 whole entry T670I): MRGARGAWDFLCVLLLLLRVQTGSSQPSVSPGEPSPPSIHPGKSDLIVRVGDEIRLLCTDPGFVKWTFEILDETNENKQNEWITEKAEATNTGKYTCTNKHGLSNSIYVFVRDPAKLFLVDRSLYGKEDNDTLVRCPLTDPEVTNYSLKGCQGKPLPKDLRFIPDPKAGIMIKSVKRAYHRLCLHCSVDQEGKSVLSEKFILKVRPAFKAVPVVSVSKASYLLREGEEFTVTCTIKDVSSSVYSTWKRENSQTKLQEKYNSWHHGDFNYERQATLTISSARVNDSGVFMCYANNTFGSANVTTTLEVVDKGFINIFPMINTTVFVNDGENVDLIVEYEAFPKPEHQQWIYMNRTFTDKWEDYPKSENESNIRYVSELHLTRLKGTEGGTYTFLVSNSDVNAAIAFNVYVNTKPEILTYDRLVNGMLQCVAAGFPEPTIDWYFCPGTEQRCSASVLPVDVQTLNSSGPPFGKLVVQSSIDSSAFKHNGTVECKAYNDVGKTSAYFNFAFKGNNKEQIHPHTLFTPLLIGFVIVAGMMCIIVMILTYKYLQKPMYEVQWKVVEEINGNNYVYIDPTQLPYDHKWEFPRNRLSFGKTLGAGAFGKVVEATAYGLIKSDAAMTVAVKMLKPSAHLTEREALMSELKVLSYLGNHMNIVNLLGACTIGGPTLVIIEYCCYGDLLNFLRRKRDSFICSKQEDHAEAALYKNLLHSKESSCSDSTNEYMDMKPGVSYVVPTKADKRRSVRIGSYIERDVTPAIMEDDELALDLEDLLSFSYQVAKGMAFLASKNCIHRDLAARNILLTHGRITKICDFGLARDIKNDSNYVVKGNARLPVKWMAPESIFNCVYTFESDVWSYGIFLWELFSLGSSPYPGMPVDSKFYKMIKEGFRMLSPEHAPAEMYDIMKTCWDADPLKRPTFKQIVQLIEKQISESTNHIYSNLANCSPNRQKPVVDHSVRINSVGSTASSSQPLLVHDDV

[5] = target: T1, Mitogen-activated protein kinase kinase kinase 5 (Homo sapiens) (UniProt Q99683); assay: MAP3K5 (ASK1) Kinase screen; settings: Compound concentration 1.0 uM
T1 sequence (whole entry): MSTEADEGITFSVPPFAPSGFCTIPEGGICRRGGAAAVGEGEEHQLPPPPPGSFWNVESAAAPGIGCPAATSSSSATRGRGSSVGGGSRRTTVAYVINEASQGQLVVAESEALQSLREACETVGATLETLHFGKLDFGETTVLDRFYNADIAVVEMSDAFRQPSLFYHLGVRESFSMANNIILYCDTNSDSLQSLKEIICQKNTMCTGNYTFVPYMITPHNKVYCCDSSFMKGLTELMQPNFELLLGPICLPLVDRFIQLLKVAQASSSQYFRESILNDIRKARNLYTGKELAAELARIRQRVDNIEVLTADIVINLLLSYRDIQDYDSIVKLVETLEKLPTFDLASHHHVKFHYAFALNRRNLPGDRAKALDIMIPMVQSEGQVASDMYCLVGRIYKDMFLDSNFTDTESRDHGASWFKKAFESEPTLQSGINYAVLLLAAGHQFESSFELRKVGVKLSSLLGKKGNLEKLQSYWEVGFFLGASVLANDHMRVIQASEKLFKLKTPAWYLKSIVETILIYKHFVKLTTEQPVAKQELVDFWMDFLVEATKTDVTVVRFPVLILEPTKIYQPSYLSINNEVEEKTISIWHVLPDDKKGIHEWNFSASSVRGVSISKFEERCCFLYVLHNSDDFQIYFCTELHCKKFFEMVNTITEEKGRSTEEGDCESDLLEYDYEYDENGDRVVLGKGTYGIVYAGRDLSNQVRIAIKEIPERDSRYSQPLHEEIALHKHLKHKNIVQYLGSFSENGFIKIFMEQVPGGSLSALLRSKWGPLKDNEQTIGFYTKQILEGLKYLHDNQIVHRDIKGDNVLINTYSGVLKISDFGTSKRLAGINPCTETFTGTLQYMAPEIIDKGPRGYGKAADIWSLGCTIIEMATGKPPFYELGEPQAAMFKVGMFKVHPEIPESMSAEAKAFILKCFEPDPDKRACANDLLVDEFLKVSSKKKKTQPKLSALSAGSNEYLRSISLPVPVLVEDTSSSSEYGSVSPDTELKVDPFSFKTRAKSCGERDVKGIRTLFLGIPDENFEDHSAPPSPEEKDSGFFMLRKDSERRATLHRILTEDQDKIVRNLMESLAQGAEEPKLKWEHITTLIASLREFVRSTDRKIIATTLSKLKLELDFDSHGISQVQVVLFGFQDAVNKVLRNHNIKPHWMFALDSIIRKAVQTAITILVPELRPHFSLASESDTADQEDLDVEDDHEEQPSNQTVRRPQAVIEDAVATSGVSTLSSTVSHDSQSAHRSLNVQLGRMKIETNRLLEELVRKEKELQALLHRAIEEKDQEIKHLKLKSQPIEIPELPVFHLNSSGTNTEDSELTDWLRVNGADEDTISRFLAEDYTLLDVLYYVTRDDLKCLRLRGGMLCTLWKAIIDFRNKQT

[6] = target: Misshapen-like kinase 1 (Homo sapiens) (UniProt Q8N4C8); assay: MINK1 Kinase screen; settings: Compound concentration 1.0 uM
[7] = target: T2, Protein kinase C iota type (Homo sapiens) (UniProt P41743); assay: PRKCI (PKC iota) Kinase screen; settings: Compound concentration 1.0 uM
T2 sequence (whole entry): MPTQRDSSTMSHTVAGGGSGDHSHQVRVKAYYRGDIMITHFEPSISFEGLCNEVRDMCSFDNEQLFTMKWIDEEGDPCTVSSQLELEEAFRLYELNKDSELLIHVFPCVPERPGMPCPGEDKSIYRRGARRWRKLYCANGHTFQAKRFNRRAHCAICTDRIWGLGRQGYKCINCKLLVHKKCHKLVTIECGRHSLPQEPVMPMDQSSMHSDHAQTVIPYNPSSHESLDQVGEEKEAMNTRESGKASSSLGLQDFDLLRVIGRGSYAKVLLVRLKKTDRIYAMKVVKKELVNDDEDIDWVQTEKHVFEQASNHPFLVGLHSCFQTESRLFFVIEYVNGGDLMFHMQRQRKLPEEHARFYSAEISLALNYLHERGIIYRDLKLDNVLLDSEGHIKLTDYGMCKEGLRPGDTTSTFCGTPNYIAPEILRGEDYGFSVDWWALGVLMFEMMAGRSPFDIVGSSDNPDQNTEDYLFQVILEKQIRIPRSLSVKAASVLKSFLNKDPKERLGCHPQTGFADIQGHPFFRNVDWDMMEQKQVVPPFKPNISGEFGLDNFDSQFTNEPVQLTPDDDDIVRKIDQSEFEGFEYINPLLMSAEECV

[8] = target: Proto-oncogene tyrosine-protein kinase ROS (Homo sapiens) (UniProt P08922); assay: ROS1 Kinase screen; settings: Compound concentration 1.0 uM
Chain of Proto-oncogene tyrosine-protein kinase ROS (Homo sapiens) (P08922 whole entry): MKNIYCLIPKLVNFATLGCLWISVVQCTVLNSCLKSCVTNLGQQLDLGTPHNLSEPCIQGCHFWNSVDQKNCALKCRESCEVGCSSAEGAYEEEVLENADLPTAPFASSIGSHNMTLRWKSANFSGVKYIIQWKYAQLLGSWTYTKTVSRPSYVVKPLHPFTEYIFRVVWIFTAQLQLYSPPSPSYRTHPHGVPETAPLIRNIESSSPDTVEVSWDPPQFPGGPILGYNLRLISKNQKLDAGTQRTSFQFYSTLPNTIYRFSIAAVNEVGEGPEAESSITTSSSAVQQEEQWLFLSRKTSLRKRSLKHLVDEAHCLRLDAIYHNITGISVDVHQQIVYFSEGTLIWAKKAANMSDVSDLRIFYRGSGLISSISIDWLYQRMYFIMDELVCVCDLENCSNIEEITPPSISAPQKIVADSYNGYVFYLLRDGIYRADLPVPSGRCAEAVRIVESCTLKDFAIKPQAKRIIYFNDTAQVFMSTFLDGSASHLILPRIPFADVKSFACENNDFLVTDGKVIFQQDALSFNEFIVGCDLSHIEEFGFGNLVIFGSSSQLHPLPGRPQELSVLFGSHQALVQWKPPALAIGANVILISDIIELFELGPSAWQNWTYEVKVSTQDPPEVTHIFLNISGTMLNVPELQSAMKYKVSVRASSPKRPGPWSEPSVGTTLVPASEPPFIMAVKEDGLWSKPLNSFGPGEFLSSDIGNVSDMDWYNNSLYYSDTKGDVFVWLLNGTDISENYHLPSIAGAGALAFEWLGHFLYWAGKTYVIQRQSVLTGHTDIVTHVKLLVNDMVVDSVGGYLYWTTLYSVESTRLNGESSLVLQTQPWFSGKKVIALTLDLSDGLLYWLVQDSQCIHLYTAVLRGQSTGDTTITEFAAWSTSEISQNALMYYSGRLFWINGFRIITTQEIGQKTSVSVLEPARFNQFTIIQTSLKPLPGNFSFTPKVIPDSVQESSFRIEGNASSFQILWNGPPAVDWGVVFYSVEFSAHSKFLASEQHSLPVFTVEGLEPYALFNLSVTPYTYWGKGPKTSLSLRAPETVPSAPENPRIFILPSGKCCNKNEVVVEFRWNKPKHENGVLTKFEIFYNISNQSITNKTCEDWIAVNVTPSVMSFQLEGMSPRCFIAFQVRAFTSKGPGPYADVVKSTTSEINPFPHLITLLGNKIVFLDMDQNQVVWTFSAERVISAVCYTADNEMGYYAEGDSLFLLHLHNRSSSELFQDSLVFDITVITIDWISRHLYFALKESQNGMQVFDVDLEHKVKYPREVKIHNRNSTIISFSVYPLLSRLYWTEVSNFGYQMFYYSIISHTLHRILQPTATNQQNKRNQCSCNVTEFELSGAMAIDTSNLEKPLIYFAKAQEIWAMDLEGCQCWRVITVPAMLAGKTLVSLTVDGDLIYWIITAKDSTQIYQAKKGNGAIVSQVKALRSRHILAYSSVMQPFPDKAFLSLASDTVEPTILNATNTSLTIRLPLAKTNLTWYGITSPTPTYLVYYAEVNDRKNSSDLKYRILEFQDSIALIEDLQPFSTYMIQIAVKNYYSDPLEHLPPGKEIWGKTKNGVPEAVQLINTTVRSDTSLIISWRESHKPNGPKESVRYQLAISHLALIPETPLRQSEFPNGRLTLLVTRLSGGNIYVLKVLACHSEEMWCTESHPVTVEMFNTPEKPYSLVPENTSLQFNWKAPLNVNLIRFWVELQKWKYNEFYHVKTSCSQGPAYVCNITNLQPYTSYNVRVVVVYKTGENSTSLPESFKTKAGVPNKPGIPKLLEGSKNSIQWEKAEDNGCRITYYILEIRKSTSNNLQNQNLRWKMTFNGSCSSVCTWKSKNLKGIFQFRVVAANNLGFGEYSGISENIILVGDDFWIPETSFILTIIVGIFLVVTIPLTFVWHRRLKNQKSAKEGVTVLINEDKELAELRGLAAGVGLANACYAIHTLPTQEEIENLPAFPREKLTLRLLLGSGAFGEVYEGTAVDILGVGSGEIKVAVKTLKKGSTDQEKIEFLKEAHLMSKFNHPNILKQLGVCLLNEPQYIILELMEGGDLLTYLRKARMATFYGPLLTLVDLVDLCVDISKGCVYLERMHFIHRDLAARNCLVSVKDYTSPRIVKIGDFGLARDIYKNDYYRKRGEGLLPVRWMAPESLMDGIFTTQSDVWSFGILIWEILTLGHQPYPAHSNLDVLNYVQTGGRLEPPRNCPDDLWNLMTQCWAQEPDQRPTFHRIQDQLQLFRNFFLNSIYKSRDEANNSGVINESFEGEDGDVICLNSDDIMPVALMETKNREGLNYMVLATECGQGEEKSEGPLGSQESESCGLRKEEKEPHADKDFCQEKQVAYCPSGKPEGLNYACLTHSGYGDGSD

[9] = target: Histamine H4 receptor (Homo sapiens) (UniProt Q9H3N8); assay: Histamine H4 Eurofins-Panlabs radioligand binding assay; settings: Compound concentration 10.0 uM
[10] = target: Endothelin-1 receptor (Homo sapiens) (UniProt P25101); settings: Compound concentration 10.0 uM
Chain of Endothelin-1 receptor (Homo sapiens) (P25101 whole entry): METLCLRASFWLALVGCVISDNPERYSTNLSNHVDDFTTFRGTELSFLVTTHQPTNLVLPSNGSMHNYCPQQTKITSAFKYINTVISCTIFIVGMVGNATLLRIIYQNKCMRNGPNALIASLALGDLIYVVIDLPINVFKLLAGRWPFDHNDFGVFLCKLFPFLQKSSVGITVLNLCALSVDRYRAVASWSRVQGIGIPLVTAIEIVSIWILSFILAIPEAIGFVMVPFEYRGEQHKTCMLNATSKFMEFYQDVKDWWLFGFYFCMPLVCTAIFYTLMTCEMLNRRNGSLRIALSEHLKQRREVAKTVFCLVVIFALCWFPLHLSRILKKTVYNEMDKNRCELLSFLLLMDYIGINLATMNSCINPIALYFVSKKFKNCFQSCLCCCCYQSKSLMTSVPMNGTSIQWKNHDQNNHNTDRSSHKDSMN

Measured: inhibition

Chain of Calcium/calmodulin-dependent protein kinase kinase 2 (Homo sapiens) (Q96RR4 2-588 limits assumed): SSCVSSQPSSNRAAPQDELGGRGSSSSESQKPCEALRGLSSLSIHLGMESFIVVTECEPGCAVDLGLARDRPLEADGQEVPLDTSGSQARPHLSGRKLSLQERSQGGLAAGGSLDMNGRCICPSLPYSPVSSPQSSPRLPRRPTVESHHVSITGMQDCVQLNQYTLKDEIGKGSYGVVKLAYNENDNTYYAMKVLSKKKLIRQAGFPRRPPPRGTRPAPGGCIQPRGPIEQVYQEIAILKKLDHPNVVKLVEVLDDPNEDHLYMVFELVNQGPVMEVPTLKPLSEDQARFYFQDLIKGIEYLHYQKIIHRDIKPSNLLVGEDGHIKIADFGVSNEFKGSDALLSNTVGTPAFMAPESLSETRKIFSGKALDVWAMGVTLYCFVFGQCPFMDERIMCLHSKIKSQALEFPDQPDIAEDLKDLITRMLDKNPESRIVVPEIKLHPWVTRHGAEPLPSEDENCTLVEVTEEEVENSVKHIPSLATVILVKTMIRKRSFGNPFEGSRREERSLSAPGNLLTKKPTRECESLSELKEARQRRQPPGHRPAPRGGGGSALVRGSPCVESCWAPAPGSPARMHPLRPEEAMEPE

C[C@@H]1CN(c2cc(-c3n[nH]c4ccc(OC5(C)CC5)cc34)ncn2)C[C@H](C)O1 [MLi-2]
inactive: [1] 19.8% | [2] 3.93% | [3] 9.38% | [4] -0.692% | [5] 71.9% | [6] 4.58% | [7] -0.512% | [8] 2.52% | [9] -4% | [10] 23%

Source: ChEMBL document CHEMBL4507291 (2021)
